{"source": "patent US20060069132A1", "about": "“Azolecarboxamide herbicides” (priority 2004, published 2006)", "key": {"barnyardgrass [1]": {"tested_on": "barnyardgrass", "assay": "Test B pre-/postemergence herbicide test", "format": "in vivo, Echinochloa crus-galli", "details": "for Barnyardgrass plant response rating: scale 0 (no effect) to 100 (complete control)", "summary_of_the_method": "(§1)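 Greenhouse pot assay with simultaneous preemergence (treated seed) and postemergence (2–18 cm seedlings) applications of surfactant-containing, non-phytotoxic solvent formulations. Response scored visually 13–15 days later on a 0–100 scale, 100 meaning complete control.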"}, "Surinam grass": {"tested_on": "Surinam grass", "assay": "Test B pre-/postemergence herbicide test", "format": "in vivo, Urochloa decumbens", "details": "for Surinam Grass plant response rating: scale 0 (no effect) to 100 (complete control)", "summary_of_the_method": "(§2)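 Pre: seeds sown, then sprayed. Post: 1–4-leaf plants (2–18 cm) sprayed at the same time. Paddy: flooded, treated at 2-leaf stage. Formulation: non-phytotoxic solvent with surfactant. Greenhouse 13–15 days; visual 0–100 score relative to controls.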"}, "cocklebur": {"tested_on": "cocklebur", "assay": "Test B pre-/postemergence herbicide test", "format": "in vivo, Xanthium strumarium", "details": "for Cocklebur plant response rating: scale 0 (no effect) to 100 (complete control)", "summary_of_the_method": "as §1"}, "corn": {"tested_on": "corn", "assay": "Test B pre-/postemergence herbicide test", "format": "in vivo, Zea mays", "details": "for Corn plant response rating: scale 0 (no effect) to 100 (complete control)", "summary_of_the_method": "as §2"}, "large crabgrass": {"tested_on": "large crabgrass", "assay": "Test B pre-/postemergence herbicide test", "format": "in vivo, Digitaria sanguinalis", "details": "for Crabgrass, Large plant response rating: scale 0 (no effect) to 100 (complete control)", "summary_of_the_method": "as §2"}, "giant foxtail": {"tested_on": "giant foxtail", "assay": "Test B pre-/postemergence herbicide test", "format": "in vivo, Setaria faberi", "details": "for Foxtail, Giant plant response rating: scale 0 (no effect) to 100 (complete control)", "summary_of_the_method": "as §2"}, "lambsquarters": {"tested_on": "lambsquarters", "assay": "Test B pre-/postemergence herbicide test", "format": "in vivo, Chenopodium album", "details": "for Lambsquarters plant response rating: scale 0 (no effect) to 100 (complete control)", "summary_of_the_method": "as §2"}, "morningglory": {"tested_on": "morningglory", "assay": "Test B pre-/postemergence herbicide test", "format": "in vivo, Ipomoea coccinea", "details": "for Morningglory plant response rating: scale 0 (no effect) to 100 (complete control)", "summary_of_the_method": "as §1"}, "pigweed": {"tested_on": "pigweed", "assay": "Test B pre-/postemergence herbicide test", "format": "in vivo, Amaranthus retroflexus", "details": "for Pigweed plant response rating: scale 0 (no effect) to 100 (complete control)", "summary_of_the_method": "as §2"}, "blackgrass": {"tested_on": "blackgrass", "assay": "Test B postemergence herbicide test", "format": "in vivo, Alopecurus myosuroides", "details": "scale 0 (no effect) to 100 (complete control)", "summary_of_the_method": "(§3)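 Greenhouse test; postemergence application to plants at 1–4 leaves (2–18 cm); paddy species at 2 leaves; evaluated visually vs controls at 13–15 days; scale 0–100 (100 = complete control).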"}, "wheat": {"tested_on": "wheat", "assay": "Test B postemergence herbicide test", "format": "in vivo, Triticum aestivum", "design": "key to Wheat plant response rating: 0 = no effect, 100 = complete control", "summary_of_the_method": "(§4)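 Scale 0–100: zero equals no visible effect, 100 complete control, judged by eye relative to controls. Timing: 13 to 15 days in greenhouse post-treatment. Growth stage at spraying: two leaves (paddy) or one to four leaves, 2–18 cm (postemergence).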"}, "wild oat": {"tested_on": "wild oat", "assay": "Test B postemergence herbicide test", "format": "in vivo, Avena fatua", "details": "scale 0 (no effect) to 100 (complete control)", "summary_of_the_method": "as §4"}, "rice": {"tested_on": "rice", "assay": "Test B flooded paddy test", "format": "in vivo, Oryza sativa", "details": "1000 g ai/ha, scale 0 to 100 (0 no effect, 100 complete control)", "summary_of_the_method": "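Plants grow to 1- to 4-leaf stage (2–18 cm) for postemergence spraying, or to 2-leaf stage for the paddy test. Formulated compound is applied. Greenhouse holding lasts 13–15 days. Response is scored visually relative to controls, 0 no effect to 100 complete control; a dash means no result.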"}, "[2]": {"tested_on": "small flower umbrella sedge", "assay": "Test B flooded paddy test", "format": "in vivo, Cyperus difformis", "details": "1000 g ai/ha, scale 0 to 100 (0 no effect, 100 complete control)", "summary_of_the_method": "as §3"}, "ducksalad": {"tested_on": "ducksalad", "assay": "Test B flooded paddy test", "format": "in vivo, Heteranthera limosa", "details": "1000 g ai/ha, scale 0 to 100 (0 no effect, 100 complete control)", "summary_of_the_method": "as §3"}, "barnyardgrass [3]": {"tested_on": "barnyardgrass", "assay": "Test B flooded paddy test", "format": "in vivo, Echinochloa crus-galli", "details": "1000 g ai/ha, scale 0 to 100 (0 no effect, 100 complete control)", "summary_of_the_method": "as §3"}, "[4]": {"details": "125 g ai/ha, 0 is no effect, 100 is complete control, preemergence"}, "[5]": {"details": "125 g ai/ha, visual rating, postemergence"}}}
{"smiles": "CCc1nn(C(C)(C)C)nc1C(=O)Nc1cccc(C(=S)N(C)C)c1", "note": "[Compound 395]", "values": [{"measurement": "Plant response rating (0 to 100 scale), Barnyardgrass", "setting": "barnyardgrass [1]; [4]", "value": 90}, {"measurement": "Barnyardgrass plant response rating", "setting": "barnyardgrass [1]; [5]", "value": 20}, {"measurement": "Barnyardgrass plant response rating", "setting": "barnyardgrass [1]; Postemergence, 500 g ai/ha", "value": 70}, {"measurement": "Plant response rating (0 to 100 scale), Surinam Grass", "setting": "Surinam grass; [4]", "value": 90}, {"measurement": "Surinam Grass plant response rating", "setting": "Surinam grass; [5]", "value": 20}, {"measurement": "Surinam Grass plant response rating", "setting": "Surinam grass; Postemergence, 500 g ai/ha", "value": 60}, {"measurement": "Plant response rating (0 to 100 scale), Cocklebur", "setting": "cocklebur; [4]", "value": 60}, {"measurement": "Cocklebur plant response rating", "setting": "cocklebur; [5]", "value": 70}, {"measurement": "Cocklebur plant response rating", "setting": "cocklebur; Postemergence, 500 g ai/ha", "value": 80}, {"measurement": "Plant response rating (0 to 100 scale), Corn", "setting": "corn; [4]", "value": 90}, {"measurement": "Corn plant response rating", "setting": "corn; [5]", "value": 30}, {"measurement": "Corn plant response rating", "setting": "corn; Postemergence, 500 g ai/ha", "value": 60}, {"measurement": "Plant response rating (0 to 100 scale), Crabgrass, Large", "setting": "large crabgrass; [4]", "value": 100}, {"measurement": "Crabgrass, Large plant response rating", "setting": "large crabgrass; [5]", "value": 20}, {"measurement": "Crabgrass, Large plant response rating", "setting": "large crabgrass; Postemergence, 500 g ai/ha", "value": 50}, {"measurement": "Plant response rating (0 to 100 scale), Foxtail, Giant", "setting": "giant foxtail; [4]", "value": 100}, {"measurement": "Foxtail, Giant plant response rating", "setting": "giant foxtail; [5]", "value": 30}, {"measurement": "Foxtail, Giant plant response rating", "setting": "giant foxtail; Postemergence, 500 g ai/ha", "value": 50}, {"measurement": "Plant response rating (0 to 100 scale), Lambsquarters", "setting": "lambsquarters; [4]", "value": 100}, {"measurement": "Lambsquarters plant response rating", "setting": "lambsquarters; [5]", "value": 80}, {"measurement": "Lambsquarters plant response rating", "setting": "lambsquarters; Postemergence, 500 g ai/ha", "value": 100}, {"measurement": "Plant response rating (0 to 100 scale), Morningglory", "setting": "morningglory; [4]", "value": 80}, {"measurement": "Morningglory plant response rating", "setting": "morningglory; [5]", "value": 40}, {"measurement": "Morningglory plant response rating", "setting": "morningglory; Postemergence, 500 g ai/ha", "value": 80}, {"measurement": "Plant response rating (0 to 100 scale), Pigweed", "setting": "pigweed; [4]", "value": 100}, {"measurement": "Pigweed plant response rating", "setting": "pigweed; [5]", "value": 40}, {"measurement": "Pigweed plant response rating", "setting": "pigweed; Postemergence, 500 g ai/ha", "value": 60}, {"measurement": "Blackgrass plant response rating", "setting": "blackgrass; [5]", "value": 20}, {"measurement": "Blackgrass plant response rating", "setting": "blackgrass; Postemergence, 500 g ai/ha", "value": 40}, {"measurement": "Wheat plant response rating", "setting": "wheat; 125 g ai/ha, visual rating, scale 0 (no effect) to 100 (complete control), postemergence", "value": 20}, {"measurement": "Wheat plant response rating", "setting": "wheat; 500 g ai/ha, scale 0 to 100, 0 no effect, 100 complete control, preemergence", "value": 100}, {"measurement": "Wheat plant response rating", "setting": "wheat; Postemergence, 500 g ai/ha, scale 0 (no effect) to 100 (complete control)", "value": 30}, {"measurement": "Oat, Wild plant response rating", "setting": "wild oat; [5]", "value": 40}, {"measurement": "Oat, Wild plant response rating", "setting": "wild oat; Postemergence, 500 g ai/ha", "value": 40}, {"measurement": "Rice plant response rating", "setting": "rice", "value": 80}, {"measurement": "Sedge, Umbrella plant response rating", "setting": "[2]", "value": 90}, {"measurement": "Ducksalad plant response rating", "setting": "ducksalad", "value": 90}, {"measurement": "Barnyardgrass plant response rating", "setting": "barnyardgrass [3]", "value": 90}]}
